Reference: patent US12642777B2 (SHENZHEN CHINA RESOURCES JIUCHUANG MEDICAL AND …, priority 2020, dated 2026)

Tests used:
[1] = Pharmacokinetics and tolerated dose of intravenous mitoxantrone chemotherapy reported in a document; format: in vivo, human; details: 75 mg/m^2 intravenous bolus versus 3143 ng×min/ml
Method: Moreover, the drug is metabolized rapidly after entering the blood, and the drug in the plasma is almost completely metabolized 60 min, 120 min at most, after the administration.

[2] = intravenous bolus, 75 mg/m^2, ovarian cancer; cited from earlier work

Structure (SMILES): O=C1c2c(O)ccc(O)c2C(=O)c2c(NCCNCCO)ccc(NCCNCCO)c21 [mitoxantrone]
- AUC of the document as multiple of the maximum AUC in the present trial [1]: 10.7-32.5 times
- AUC [2]: 560 to 1700 ng·h/mL
